Some results are limits rather than exact numbers.

Results on 2 compounds are retold here after ChEMBL document CHEMBL1158712, “Acetylated aporphine alkaloids from Lysichiton camtschatcense” (J Nat Prod, 2005).

For assay [1], the system named is Radical scavenging activity. Briefly: Antioxidant activity assessed as DPPH radical scavenging activity after 48 hrs. Format: functional. On the technique in general: The DPPH test is a chemical assay of radical scavenging.
Assay [2] concerns Radical scavenging activity. Put plainly: Antioxidant activity assessed as DPPH radical scavenging activity after 30 mins. It is filed as functional.

As for `COc1cc2c3c(c1OC)-c1ccccc1[C@H](OC(C)=O)[C@H]3N(C(C)=O)CC2`, the IC50 in assay [1] is 362 µM. Further, the Activity in assay [2] is less than 10%.
As for `CC(=O)O[C@H]1c2ccccc2-c2c3c(cc4c2[C@@H]1N(C(C)=O)CC4)OCO3`, the IC50 in assay [1] turned out to be 518 µM. Moreover, the Activity in assay [2] was less than 10%.

For orientation: IC50 means the concentration that inhibits the measured activity by half.
